Values of other authors as cited in US6689588B1, “Garlic alliinase covalently bound to carrier for continuous production of allician” (Yeda Research and Development Co. Ltd., priority 1996, dated 2004).

Tests used:
[1] = system: bacteria, fungi, amebae; details: Cavallito et al., 1944; Barone and Tansey, 1977; Mirelman et al., 1987
[2] = Cavallito et al., 1944

C=CCS[S+]([O-])CC=C (centres unmarked) [allicin, thio-2-propene-1-sulfinic acid S-allyl ester]
antimicrobial activity [1]: antibacterial, antifungal and antiamebic activity | chemical stability [2]: chemically unstable
